Results: patent publication US20230233583A1, “USE OF PHYTOCANNABINOIDS FOR TREATING MULTIPLE MYELOMA” (priority 2020, published 2023)

Test system: MM cell lines SKO, U266 and RPMI
Test: Alkaline Comet assay
Type: cell-based, human
Details: 48 hrs, CBG, CBN, CBDV 25 μM, CBC 75 μM
Description: Damage to cellular DNA of the cell lines SKO (upper images in each of FIGS. 21-24), U266 (middle images in each of FIGS. 21-24) and RPMI (lower images in each of FIGS. 21-24) due to exposure to CBG (25 μM; FIG. 21), CBC (75 μM; FIG. 22), CBN (25 μM; FIG. 23) and CBDV (25 μM; FIG. 24) were assessed using the Comet assay.
Alkaline Comet Assay: U266, SKO and RPMI myeloma cell lines were plated in 6-well plates (4×10^4 cell/well) one day before treatment exposure. Semi-confluent cultures were exposed for 48 hrs with 25 μM of CBG, CBN or CBDV or 75 μM of CBC. Controls, treated with vehicle, were included in all series. The Comet assay was performed under alkaline conditions following the ABCAM™ protocol. Briefly, after exposure to the phytocannabinoid, the cells were incubated for 48 hrs in Roswell Park Memorial Institute (RPMI) medium. Then the cells were resuspended in 1×PBS and added to 75 μL of molten (37° C.) 0.5% low-melting-point agarose gel to achieve a cell concentration of 1×10^5 cells/mL. The agarose was pipetted onto the Comet slides. Slides were stored in the dark at 4° C. for 10 min before adding pre-chilled lysis buffer for 45 min. The slides were immersed in freshly prepared alkaline solution (0.25 M NaOH containing […] EDTA, pH 12.6) for 30 min at room temperature. Slides were then removed and washed twice with alkaline solution for 5 min. Gel electrophoresis was performed at 1 V/cm for 30 min (running amperage 3-5 mA with the distance between the two electrodes of 25 cm). The Comet slides were washed with 70% ethanol for 5 min and air-dried for one hour at room temperature. 100 μL of diluted SYBR™ Green solution was placed onto each dried agarose circle. The slides were then read with a fluorescence microscope (LEIKA).
Phytocannabinoids induce necrotic cell death in MM cell lines: To evaluate the cytotoxic mechanism induced by the phytocannabinoids, MM cell lines were treated daily with a cytotoxic dose for each phytocannabinoid (CBG: 25 μM; CBC 75 μM; CBN 25 μM; CBDV 25 μM) for 48 hours and then Annexin-V/PI cell positivity was evaluated by FACS analysis. The results evidenced that all of the phytocannabinoids induced necrotic cell death but had different efficacies (FIGS. 5-16). To confirm the necrotic cell death mechanism, MM cell lines were treated as above and DNA damage was evaluated by H2AX (a marker to examine the DNA damage produced and the subsequent repair of the DNA lesion) Western blot analysis and Comet assay (permits the analysis of DNA damage in single cell preparations). The result confirmed the DNA damage induced by the phytocannabinoid analysed. […]

CCCCCc1cc(O)c2c(c1)OC(C)(CCC=C(C)C)C=C2 (stereo not shown) [CBC, 2-methyl-2-(4-methylpent-3-enyl)-7-pentylchromen-5-ol]
DNA damage by Comet assay, in words: induce DNA damage

C=C(C)[C@@H]1CCC(C)=C[C@H]1c1c(O)cc(CCC)cc1O [CBDV, 2-[(1R,6R)-3-methyl-6-prop-1-en-2-ylcyclohex-2-en-1-yl]-5-propylbenzene-1,3-diol]
DNA damage by Comet assay, in words: induce DNA damage

CCCCCc1cc(O)c(C/C=C(\C)CCC=C(C)C)c(O)c1 [CBG, 2-[(2E)-3,7-dimethylocta-2,6-dienyl]-5-pentylbenzene-1,3-diol]
DNA damage by Comet assay, in words: induce DNA damage

CCCCCc1cc(O)c2c(c1)OC(C)(C)c1ccc(C)cc1-2 [CBN, 6,6,9-trimethyl-3-pentylbenzo[c]chromen-1-ol]
DNA damage by Comet assay, in words: induce DNA damage
